Assay results as given in patent US20040077881A1, “$G(d)1-pyrrolines used in pest control” (priority 2001, published 2004).

Assays:
[1] = logP determination by HPLC (EEC directive 79/831 Annex V.A8, reversed-phase C 18); assay type: physicochemical; settings: reversed-phase HPLC column (C 18), pH 2.3, HPLC, reversed-phase column (C 18), 43° C., pH 2.3, 0.1% aqueous phosphoric acid/acetonitrile; read-out: log P
Method: The stated logP values were determined in accordance with EEC directive 79/831 Annex V.A8 by HPLC (High Performance Liquid Chromatography) using a reversed-phase column (C 18). Temperature: 43° C. In the acidic range, the determination was carried out at pH 2.3 using the mobile phases 0.1% aqueous phosphoric acid and acetonitrile; linear gradient from 10% acetonitrile to 90% acetonitrile.

[2] = tested on: Heliothis virescens caterpillars; assay: Heliothis virescens test; assay type: in vivo; settings: 1000 ppm, soyabean shoots dipped
Method: Solvent: 30 parts by weight of dimethylformamide Emulsifier: 1 part by weight of alkylaryl polyglycol ether To produce a suitable preparation of active compound, 1 part by weight of active compound is mixed with the stated amounts of solvent and emulsifier, and the concentrate is diluted with emulsifier-containing water to the desired concentration. Soyabean shoots (Glycine max) are treated by being dipped into the preparation of active compound of the desired concentration and populated with Heliothis virescens caterpillars whilst the leaves are still moist. After the desired period of time, the kill in % is determined. 100% means that all caterpillars have been killed; 0% means that none of the caterpillars have been killed.

[3] = tested on: fruit tree spider mite (Panonychus ulmi); assay: Panonychus test; assay type: in vivo; settings: 200 ppm, plum trees sprayed
Method: To produce a suitable preparation of active compound, 1 part by weight of active compound is mixed with the stated amounts of solvent and emulsifier, and the concentrate is diluted with emulsifier-containing water to the desired concentration.
Plum trees (Prunus domestica) of a height of about 30 cm which are heavily infested by all stages of the fruit tree spider mite (Panonychus ulmi) are sprayed with a preparation of active compound of the desired concentration.
After the desired period of time, the effect in % is determined. 100% means that all spider mites have been killed; 0% means that none of the spider mites have been killed.

[4] = tested on: caterpillars of the diamond-back moth (Plutella xylostella); assay: Plutella test; assay type: in vivo; settings: 1000 ppm, cabbage leaves dipped
Method: (§1) [table] To produce a suitable preparation of active compound, 1 part by weight of active compound is mixed with the stated amounts of solvent and emulsifier, and the concentrate is diluted with emulsifier-containing water to the desired concentration. Cabbage leaves (Brassica oleracea) are treated by being dipped into the preparation of active compound of the desired concentration and are populated with caterpillars of the diamond-back moth (Plutella xylostella) whilst the leaves are still moist. After the desired period of time, the kill in % is determined. 100% means that all caterpillars have been killed; 0% means that none of the caterpillars have been killed.

[5] = tested on: caterpillars of the army-worm (Spodoptera exigua); assay: Spodoptera exigua test; assay type: in vivo; settings: 1000 ppm, cabbage leaves dipped
Method: as §1, with “army-worm (Spodoptera exigua)” for “diamond-back moth (Plutella xylostella)”

[6] = tested on: caterpillars of the army-worm (Spodoptera frugiperda); assay: Spodoptera frugiperda test; assay type: in vivo; settings: 1000 ppm, cabbage leaves dipped
Method: as §1, with “army-worm (Spodoptera frugiperda)” for “diamond-back moth (Plutella xylostella)”

[7] = tested on: greenhouse red spider mite (Tetranychus urticae); assay: Tetranychus test (OP-resistant/dip treatment); assay type: in vivo; settings: 100 ppm, bean plants dipped, OP-resistant
Method: [table] To produce a suitable preparation of active compound, 1 part by weight of active compound is mixed with the stated amounts of solvent and emulsifier, and the concentrate is diluted with emulsifier-containing water to the desired concentration. Bean plants (Phaseolus vulgaris) which are heavily infested by all stages of the greenhouse red spider mite (Tetranychus urticae) are dipped into a preparation of active compound of the desired concentration. After the desired period of time, the effect in % is determined. 100% means that all spider mites have been killed; 0% means that none of the spider mites have been killed.

Lucilia cuprina larvae = assay: Blowfly larvae test / development-inhibitory action; assay type: in vivo; settings: 100 ppm
Method: [table] 20 mg of active compound are dissolved in 1 ml of dimethyl sulphoxide, more dilute concentrations are prepared by dilution with dist. H2O. About 20 Lucilia cuprina larvae are introduced into a test tube which contains about 1 cm^3 of horsemeat and 0.5 ml of the preparation of active compound to be tested. The activity of the preparation of active compound is determined after 24 and 48 hours. The test tubes are transferred into a beaker whose bottom is covered with sand. After a further 2 days, the test tubes are removed and the pupae are counted. The activity of the preparation of active compound is assessed using the number of flies that have hatched after 1.5 times the development period of an untreated control. 100% means that none of the flies have hatched; 0% means that all of the flies have hatched normally.

[8] = tested on: Amblyomma variegatum or A. hebraeum, nymphs which have sucked themselves full; assay: Nymph ecdysis test on polyphagous ticks; assay type: in vivo; settings: 100 ppm; nymphs immersed for 1 minute; assessed after 4 to 6 weeks
Method: [table] 20 mg of active compound are dissolved in 1 ml of dimethyl sulphoxide, more dilute concentrations are prepared by dilution with dist. H2O. 10 nymphs which have sucked themselves full are immersed for 1 minute into the preparation of active compound to be tested. The animals are transferred to petri dishes (Ø0 9.5 cm) fitted with filter discs and covered. After the nymphs have remained in a controlled-environment cabinet for 4 to 6 weeks, the effect on ecdysis is determined. 100% means that none of the animals have undergone normal ecdysis. 0% means that all animals have undergone ecdysis.

Work on Fc1cccc(F)c1C1=NC(c2ccc(-c3ccc(OC(F)(F)F)cc3)cc2)CC1(Cl)Cl (stereo not drawn) [Example 4, 4,4-dichloro-5-(2,6-difluorophenyl)-2-[4′-(trifluoromethoxy)-1,1′-biphenyl-4-yl]-3,4-dihydro-2H-pyrrole] yielded a chromatographic logP [1] of 5.92 and a melting point of 60 to 61 °C.

In the case of Fc1cccc(F)c1C1=NC(c2ccc(-c3ccc(OC(F)(F)F)cc3)cc2)CC1(Cl)Cl (stereo not drawn) [drawing 52], the “Kill rate in % after 6 d” value [2] is reported as 100%.

For Fc1cccc(F)c1C1=NC(c2ccc(-c3ccc(OC(F)(F)F)cc3)cc2)CC1Cl (stereo not drawn) [drawing 53], the “Kill rate in % after 6 d” value [2] was 100%.

In the case of Fc1cccc(F)c1C1=N[C@@H](c2ccc(-c3ccc(OC(F)(F)F)cc3)cc2)CC1(Cl)Cl [drawing 54], the “Kill rate in % after 6 d” value [2] is reported as 100%.

In the case of O=S(=O)(Oc1ccc(-c2ccc([C@H]3C[C@H](Cl)C(c4c(F)cccc4F)=N3)cc2)cc1)C(F)(F)F [drawing 55], the “Kill rate in % after 14 d” value [3] is reported as 100%.

With Fc1cccc(F)c1C1=NC(c2ccc(-c3ccc(OC(F)(F)F)cc3)cc2)CC1Cl (stereo not drawn) [drawing 65] the “Kill rate in % after 6 d” value [4] was 100%.

For Fc1cccc(F)c1C1=NC(c2ccc(-c3ccc(OC(F)(F)F)cc3)cc2)CC1(Cl)Cl (stereo not drawn) [drawing 66], the “Kill rate in % after 6 d” value [5] was 100%.

With Fc1cccc(F)c1C1=NC(c2ccc(-c3ccc(OC(F)(F)F)cc3)cc2)CC1Cl (stereo not drawn) [drawing 67] the “Kill rate in % after 6 d” value [5] was 100%.

With Fc1cccc(F)c1C1=N[C@@H](c2ccc(-c3ccc(OC(F)(F)F)cc3)cc2)CC1(Cl)Cl [drawing 68] the “Kill rate in % after 6 d” value [5] was 100%.

With Fc1cccc(F)c1C1=NC(c2ccc(-c3ccc(OC(F)(F)F)cc3)cc2)CC1(Cl)Cl (stereo not drawn) [drawing 69] the “Kill rate in % after 7 d” value [6] was 100%.

For Fc1cccc(F)c1C1=NC(c2ccc(-c3ccc(OC(F)(F)F)cc3)cc2)CC1Cl (stereo not drawn) [drawing 70], the “Kill rate in % after 7 d” value [6] was 100%.

With Fc1cccc(F)c1C1=N[C@@H](c2ccc(-c3ccc(OC(F)(F)F)cc3)cc2)CC1(Cl)Cl [drawing 71] the “Kill rate in % after 7 d” value [6] was 100%.

In the case of Fc1cccc(F)c1C1=N[C@@H](c2ccc(-c3ccc(OC(F)(F)F)cc3)cc2)CC1(Br)Br [drawing 72], the “Kill rate in % after 7 d” value [6] is reported as 100%.

In the case of Fc1cccc(F)c1C1=N[C@@H](c2ccc(-c3ccc(OC(F)(F)F)cc3)cc2)C/C1=C\c1ccc(Br)cc1 [drawing 73], the “Kill rate in % after 7 d” value [6] is reported as 100%.

In the case of O=S(=O)(Oc1ccc([C@H]2CC(Br)C(c3c(F)cccc3F)=N2)cc1)C(F)(F)F (stereo partly drawn) [drawing 74], the “Kill rate in % after 7 d” value [6] is reported as 100%.

For O=S(=O)(Oc1ccc(-c2ccc([C@H]3C[C@H](Cl)C(c4c(F)cccc4F)=N3)cc2)cc1)C(F)(F)F [drawing 75], the “Kill rate in % after 7 d” value [6] was 100%.

In the case of Fc1cccc(F)c1C1=N[C@@H](c2ccc(-c3ccc(OC(F)(F)F)cc3)cc2)C/C1=C\c1ccc(Br)cc1 [drawing 80], the “Kill rate in % after 7 d” value [7] is reported as 98%.

With O=S(=O)(Oc1ccc([C@H]2CC(Br)C(c3c(F)cccc3F)=N2)cc1)C(F)(F)F (stereo partly drawn) [drawing 81] the “Kill rate in % after 7 d” value [7] was 98%.

With O=S(=O)(Oc1ccc([C@H]2CC(Cl)(Cl)C(c3c(F)cccc3F)=N2)cc1)C(F)(F)F [drawing 82] the “Kill rate in % after 7 d” value [7] was 95%.

For O=S(=O)(Oc1ccc(-c2ccc([C@H]3C[C@H](Cl)C(c4c(F)cccc4F)=N3)cc2)cc1)C(F)(F)F [drawing 83], the “Kill rate in % after 7 d” value [7] was 98%.

In the case of Fc1cccc(F)c1C1=NC(c2ccc(-c3ccc(OC(F)(F)F)cc3)cc2)CC1(Cl)Cl (stereo not drawn) [drawing 84], the “Kill rate in % after 48 h” value (Lucilia cuprina larvae) is reported as 100%.

For Fc1cccc(F)c1C1=N[C@@H](c2ccc(-c3ccc(OC(F)(F)F)cc3)cc2)CC1(Cl)Cl [drawing 85], the “Kill rate in % after 48 h” value (Lucilia cuprina larvae) was 100%.

In the case of O=S(=O)(Oc1ccc(-c2ccc([C@H]3C[C@H](Cl)C(c4c(F)cccc4F)=N3)cc2)cc1)C(F)(F)F [drawing 86], the “Kill rate in % after 48 h” value (Lucilia cuprina larvae) is reported as 100%.

For Fc1cccc(F)c1C1=NC(c2ccc(-c3ccc(OC(F)(F)F)cc3)cc2)CC1(Cl)Cl (stereo not drawn) [drawing 87], the “Effect on ecdysis in %” value [8] was 100%.

In the case of Fc1cccc(F)c1C1=N[C@@H](c2ccc(-c3ccc(OC(F)(F)F)cc3)cc2)CC1(Cl)Cl [drawing 88], the “Effect on ecdysis in %” value [8] is reported as 100%.

For O=S(=O)(Oc1ccc(-c2ccc([C@H]3C[C@H](Cl)C(c4c(F)cccc4F)=N3)cc2)cc1)C(F)(F)F [drawing 89], the “Effect on ecdysis in %” value [8] was 100%.
